Holding throughout (assay): MIC by broth microdilution (NCCLS M7-A4)
What all share (format): cell-based
On the technique in general: In broth dilution the organism is exposed to a series of concentrations in liquid medium.

For one assay, the system named is S. aureus A798. To be noted: Staphylococcus aureus, cation-adjusted Mueller-Hinton Broth, pH 7.2-7.3. As to the method: (§1) These assays have been performed following the description given in “Methods for dilution Antimicrobial Susceptibility Tests for Bacteria that Grow Aerobically, 4th ed.; Approved standard: NCCLS Document M7-A4; National Committee for Clinical Laboratory Standards Villanova, Pa., USA, 1997”. Minimal inhibitory concentrations (MICs; mg/l) were determined in cation-adjusted Mueller-Hinton Broth (BBL) by a microdilution method following NCCLS guidelines (National Committee for Clinical Laboratory Standards. Methods for Dilution Antimicrobial Susceptibility). The pH of the test medium was 7.2-7.3. All the above Examples were tested against several Gram positive and Gram negative bacteria.

A further assay relates to S Pneunoniae 49619. To be noted: cation-adjusted Mueller-Hinton Broth, pH 7.2-7.3. Here is the method: as §1
The test system of a further assay is M catarrhalis A894. To be noted: cation-adjusted Mueller-Hinton Broth, pH 7.2-7.3. As to the method: as §1

In brackets after ≈: the same amount, converted by molar mass.

Broadly, the MIC is the smallest concentration in the dilution series that meets the test's criterion for growth inhibition. Regarding `O=C(O)c1cn(C2CC2)c2c3c(c(F)cc2c1=O)N1C[C@](O)(COc2ccc(N4C[C@H](Cn5ccnn5)OC4=O)cc2F)C[C@@H]1CO3` [Example 4, (13R,16S)-1-cyclopropyl-7-fluoro-16-[2-fluoro-4-((5R)-2-oxo-5-[1,2,3]triazol-1-ylmethyl-oxazolidin-3-yl)-phenoxymethyl]-16-hydroxy-4-oxo-1,4,13,15,16,17-hexahydro-12H-11-oxa-1,14-diaza-cyclopenta[a]phenanthrene-3-carboxylic acid], the values for the MIC in the assay with S. aureus A798, in the assay with S Pneunoniae 49619 and in the assay with M catarrhalis A894 were no more than 0.063 µg/mL, no more than 0.063 µg/mL and 0.25 µg/mL (≈ 0.384 µM), respectively.

With `CC(=O)NC[C@H]1CN(c2ccc(OC[C@]3(O)C[C@H]4COc5c(c(F)cc6c(=O)c(C(=O)O)cn(C7CC7)c56)N4C3)c(F)c2)C(=O)O1` [Example 2, (13S,16S)-16-{4-[(5S)-5-(acetylamino-methyl)-2-oxo-oxazolidin-3-yl]-2-fluoro-phenoxymethyl}-1-cyclopropyl-7-fluoro-16-hydroxy-4-oxo-1,4,13,15,16,17-hexahydro-12H-11-oxa-1,14-diaza-cyclopenta[a]phenanthrene-3-carboxylic acid], the MIC against S. aureus A798, with S Pneunoniae 49619 and against M catarrhalis A894 was no more than 0.063 µg/mL each time.

`O=C(O)c1cn(C2CC2)c2c3c(c(F)cc2c1=O)N1C[C@](O)(COc2ccc(N4C[C@H](Cn5ccnn5)OC4=O)cc2F)C[C@H]1CO3` [Example 1, (13S,16S)-1-cyclopropyl-7-fluoro-16-[2-fluoro-4-((5R)-2-oxo-5-[1,2,3]triazol-1-ylmethyl-oxazolidin-3-yl)-phenoxymethyl]-16-hydroxy-4-oxo-1,4,13,15,16,17-hexahydro-12H-11-oxa-1,14-diaza-cyclopenta[a]phenanthrene-3-carboxylic acid]: the MIC against S. aureus A798, against S Pneunoniae 49619 and against M catarrhalis A894 was no more than 0.063 µg/mL each time.

The values are drawn from US20100222302A1, “Novel Antibacterial Compounds” (priority 2005, published 2010).
